Test results as given in ChEMBL document CHEMBL1201862, “PubChem BioAssay data set” (2004).
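Five concentrations, 48 hours, 96-well plates. GI50: concentration for 50% inhibition of growth.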 Active and inactive are the calls of the source. No stated cut-off is given here; in the data, active = GI50 up to about 1.1 µM and inactive = higher.

Assays:
Test in all cases: growth of human tumour cells (NCI), 48 h
UO-31 = tested on: UO-31
T47D = tested on: T47D
OVCAR-3 = tested on: OVCAR-3
786-0 = tested on: 786-0
OVCAR-8 = tested on: OVCAR-8
U-251 = tested on: U-251
PC-3 = tested on: PC-3
M14 = tested on: M14
LOX IMVI = tested on: LOX IMVI
HL-60 = tested on: HL-60
SK-MEL-5 = tested on: SK-MEL-5
COLO 205 = tested on: COLO 205
DU-145 = tested on: DU-145
SR = tested on: SR
SNB-75 = tested on: SNB-75
RPMI-8226 = tested on: RPMI-8226
Hs-578T = tested on: Hs-578T
TK-10 = tested on: TK-10
UACC-257 = tested on: UACC-257

Measured: GI50

ClC1(Cl)C2CCOC21n1cnc2ccccc21 (configuration not stated)
inactive: UO-31 53.8 µM | T47D > 100 µM | OVCAR-3 > 100 µM | 786-0 > 100 µM | OVCAR-8 > 100 µM | U-251 > 100 µM | PC-3 > 100 µM | M14 > 100 µM | LOX IMVI 98.2 µM | HL-60 > 100 µM | SK-MEL-5 > 100 µM | COLO 205 > 100 µM | DU-145 > 100 µM | SR > 100 µM | SNB-75 > 100 µM | RPMI-8226 > 100 µM | Hs-578T > 100 µM

C=CC1(c2ccc(Br)cc2)OCCCO1
inactive: UO-31 > 100 µM | TK-10 > 100 µM | T47D > 100 µM | OVCAR-3 > 100 µM | 786-0 > 100 µM | OVCAR-8 > 100 µM | U-251 > 100 µM | PC-3 > 100 µM | M14 > 100 µM | LOX IMVI > 100 µM | HL-60 > 100 µM | SK-MEL-5 > 100 µM | COLO 205 > 100 µM | DU-145 > 100 µM | SR > 100 µM | UACC-257 > 100 µM | SNB-75 > 100 µM | RPMI-8226 > 100 µM | Hs-578T > 100 µM

C[n+]1c2ccccc2c(C(=O)Nc2ccc(S(=O)(=O)Nc3ncccn3)cc2)c2ccccc21
inactive: UO-31 75.5 µM | TK-10 > 100 µM | T47D > 100 µM | OVCAR-3 > 100 µM | 786-0 > 100 µM | OVCAR-8 > 100 µM | U-251 > 100 µM | PC-3 57 µM | M14 > 100 µM | LOX IMVI 79.3 µM | SK-MEL-5 58.9 µM | COLO 205 > 100 µM | DU-145 > 100 µM | SR > 100 µM | UACC-257 > 100 µM | SNB-75 72.8 µM | RPMI-8226 > 100 µM | Hs-578T > 100 µM

CCOC(=O)c1c(-c2ccc(Cl)cc2)c(C#N)c(=S)n(C2OC(CO)C(O)C(O)C2O)c1-c1ccccc1 (configuration not stated)
inactive: UO-31 38 µM | TK-10 33.8 µM | T47D 23.2 µM | OVCAR-3 21.3 µM | 786-0 26.7 µM | U-251 17 µM | PC-3 19.9 µM | M14 19.7 µM | LOX IMVI 14.6 µM | HL-60 > 10 µM | SK-MEL-5 15.6 µM | COLO 205 30.1 µM | DU-145 27.2 µM | SR 33.1 µM | UACC-257 27.5 µM | SNB-75 27.9 µM | RPMI-8226 34.7 µM | Hs-578T 24.2 µM
